# “And” between values parts separate entries of the source, which are not always exact repeats. Identical values can stand only once.
# Key:
# [1] = Pharmacokinetic study after oral administration in SD rats; type: in vivo, rat; conditions: male, Sprague-Dawley, rat, in vivo, po, 150 mg/kg
# Description: In order to evaluate the bioavailability of curcumin and its analog TML-6, pharmacokinetic studies were commissioned and conducted by the Development Center for Biotechnology (DCB, Taipei, Taiwan). The kinetics of curcumin and TML-6 in blood were collected at 0.25, 0.5, 1, 2, 4, 6, 8 and 10 h after oral administration of curcumin and TML-6 at the dose of 150 mg/kg in male Sprague–Dawley Rats.
# Apo E in Huh-7 cells = experiment: Western blotting of ApoE protein expression; type: cell-based, human; conditions: 2.62 µg/mL, 24 h, vs medium and curcumin control
# Description: (§1) After cells were seeded and treated with curcumin and TML-6 for 24 h, cells were washed with ice-cold PBS (Phosphate Buffered Saline) and lysed with 100 μL of RIPA cell lysis buffer (Pierce Biotechnology, Rockford, IL, USA) supplemented with protease and phosphatase inhibitors (Roche Diagnostics, Mannheim, Germany). Cell lysates were further cleaned by centrifugation at 14,000 rpm at 4 °C for 15 min. Protein concentration was determined using a Bradford assay (Bio-Rad, Hercules, CA, USA). For Western blot analysis, 20 μg of each sample was prepared for SDS-PAGE (SDS Poly-acrylamide-gel-electrophoresis) and denatured at 95 ℃ for 10 min. The samples prepared from total lysates were loaded and separated by SDS-PAGE (8% or 10%), and then transferred to PVDF membranes (pore size 0.45 μm; PerkinElmer, Waltham, MA, USA) by semi-dry transfer cell (Bio-Rad). After blocking with 5% skim milk in PBS-T (0.1% Tween-20), the membranes were hybridized with primary antibodies at 1/1000 dilution at 4 °C overnight. On the next day, membranes were washed with PBS-T followed by incubation with HRP-conjugated anti-mouse or anti-rabbit secondary antibody (DAKO, Santa Clara, CA, USA) at 1/5000 dilution at room temperature for 1 h as appropriate. […]
# 3xTg AD transgenic mice = experiment: Morris water maze test in 3xTg AD transgenic mice; type: in vivo, mouse; conditions: 150 mg/kg/day in diet for four months; six-month-old 3xTg AD mice; vs vehicle control
# Description: (§2) The triplex transgenic mouse model (3xTg-AD, APP Swedish, MAPT P301L, and PSEN1 M146V) was adopted as the AD model and bred at the laboratory animal center of National Cheng Kung University (NCKU), Tainan, Taiwan. The mice were housed in a room maintained on a 12 h light–dark cycle and fed ad libitum. Six-month old 3xTg-AD mice were used for animal experiments. Experimental procedures for handling the mice were in accordance with the guidelines of the Institutional Animal Care and Use Committee (IACUC) of NCKU. These mice develop plaques and tangles pathology. Aβ deposition is progressive, and deposition appears as early as nine months for triplex-Tg mice. The AD transgenic mice were fed with the control diet (Laboratory Rodent Diet 5001, LabDiet, St. Louis, MO, USA), the control diet plus traditional curcumin (150 mg/kg), or the control diet plus TML-6 (150 mg/kg) for four months. Diets were stored at 4 °C and were added to mouse cage twice a week. The quantity of the diet consumed by the mice was determined daily. The concentration of curcumin and TML-6 in the diet was determined to be around 1.20 mg/g of diet after assaying by HPLC by the Development Center for the Biotechnology (DCB), Taipei, Taiwan.
# For assessing spatial learning and memory, the Morris water maze was used as we described before. […] The time taken to reach the platform was recorded as escape latency.
# Huh-7 cells = experiment: Cytotoxicity assay by Cell Counting Kit-8 (CCK-8); type: cell-based, human; conditions: Huh-7, 24 h, concentrations below 5 μM (2.61 µg/mL)
# Description: (§3) The cytotoxicity assay was performed using the Cell Counting Kit-8 (CCK-8, Sigma). We dissolved 0.0524 g of TML-6 (molecular weight is 523.62 g/mol) in 10 mL DMSO to obtain TML-6 stock at 10 mM for cell line study. […] Briefly, Huh-7 cells were seeded overnight in 96-well plates at 5000 cells/well and then subjected to traditional curcumin or TML-6 treatment for 24 h. At each time point, a CCK-8 solution (0.25 mg/mL) was added to the medium in each well for an additional 4 h incubation, and absorbance was measured at 570 nm using an ELISA reader.
# [2] = Cytotoxicity assay by Cell Counting Kit-8 (CCK-8); type: cell-based, human; conditions: human, Huh-7 cells; Huh-7, 24 h
# Description: as §3
# [3] = test system: Iba-1 (microglial activation marker) in 3xTg AD mouse hippocampus; experiment: Immunofluorescence staining of Iba-1 in brain of 3xTg AD mice; type: in vivo; conditions: 150 mg/kg/day in diet for four months
# Description: as §2, with “The AD transgenic mice were fed with the control diet (Laboratory Rodent Diet 5001, LabDiet, St. Louis, MO, USA), the control diet plus traditional curcumin (150 mg/kg), or the control diet plus TML-6 (150 mg/kg) for four months. Diets were stored at 4 °C and were added to mouse cage twice a week.” left out
# (§4) Mice were anesthetized using pentobarbital (60 mg/kg, intravenous) and then transcardial perfusion was performed with 0.01 M PBS (pH 7.4). […] Images were captured by the TissureFAXS microscopy system and positive signals were quantified by TissueQuest software module (TissueGnostic, Vienne, Austria).
# N2a/APPswe stable cells = experiment: Cell viability/morphology by micrographs during Aβ ELISA treatment; type: cell-based, mouse; conditions: 24 h
# Description: (§5) Extracellular levels of soluble Aβ40 and Aβ42 were determined by LEGEND MAX™ β-Amyloid x-40 and X-42 ELISA Kit (Biolegend, San Diego, CA, USA). Overexpression of the APP Swedish mutation (APPswe) in the N2a neuronblastoma cell line was called the N2a/APPswe cell line. N2a/APPswe stable cells were seeded at 8 × 10^5 cells in 6 cm dishes. After overnight incubation, the cells were treated with curcumin and TML-6 for 24 h. […] The culture supernatant was collected and centrifuged at 1500× g at 4 °C for 5 min to remove cells. The culture supernatants from various treatments were conducted to examine the Aβ levels according to the manufacturer’s instructions. The samples for the detection of soluble Aβ levels were diluted in the supernatant at a 1:10 dilution for this experiment. Levels of soluble Aβ were detected by measuring the OD at 620 nm (Molecular Devices, San Jose, CA, USA). The calculation of Aβ levels was based on the standard curves of Aβ40 and Aβ42, respectively.
# [4] = test system: phospho-NF-κB in Huh-7 cells; experiment: Western blotting of phosphorylated NF-κB; type: cell-based, human; conditions: 1.96 µg/mL, 24 h, vs medium control
# Description: as §1
# [5] = Brain penetration study in normal mice after oral dosing; type: in vivo; conditions: oral dose of 150 mg/kg, normal mouse brain
# rat = experiment: Preliminary toxicological experiments in the rat model; type: in vivo; conditions: preliminary data
# [6] = test system: Nrf2 promoter in Huh-7 cells; experiment: Nrf2 promoter Dual-Luciferase reporter assay; type: cell-based, human
# Description: To examine the activities of the anti-oxidative gene NrF2, Huh-7 cells were seeded in 24-well culture plates and then co-transfected with serial dilution of pG5-Nrf2-Luc (firefly luciferase) with the pRL-TK Renilla luciferase reporter. Following overnight incubation, the transfected cells were treated with traditional curcumin and TML-6 compounds for additional 24 h. The luciferase reporter assay was performed using the Dual-Luciferase Reporter assay system (Promega, Madison, WI, USA). The cell lysates were assayed for both firefly and Renilla luciferase activities. The relative luciferase units (RLU) were measured using a luminometer (GLOMAX Multi, Promega). Firefly luciferase activity was normalized for transfection efficiency using the Renilla luciferase activity in each lysate as the control. The RLUs are expressed as means plus standard deviation of three independent experiments.
# [7] = Water solubility (preformulation, preliminary studies); type: physicochemical; conditions: water, unformulated
# Description: The active pharmaceutical ingredients of TML-6 were synthesized and physico-chemical properties were characterized by SinoPharm Pharmaceutical Company (SPT), Tainan, Taiwan. Preformulation studies on the solubility of TML-6 were conducted by Value Pharmaceutical Services (VPS) Company, Jiansu, China. All the data in this study were conducted using unformulated TML-6. Formulation to optimize the solubility and permeability of TML-6 is under development for toxicological studies.
# [8] = test system: Aβ40 production in N2a/APPswe stable cells; experiment: Aβ40 ELISA of culture medium; type: cell-based, mouse; conditions: 3.14 µg/mL, 24 h, culture medium
# Description: as §5
# [9] = Brain penetration study in AD transgenic mice after oral dosing; type: in vivo, mouse; conditions: oral dose of 150 mg/kg
# [10] = test system: Aβ42 production in N2a/APPswe stable cells; experiment: Aβ42 ELISA of culture medium; type: cell-based, mouse; conditions: 3.14 µg/mL, 24 h, culture medium
# Description: as §5
# [11] = test system: APP (amyloid precursor protein) in Huh-7 cells; experiment: Western blotting of APP protein expression; type: cell-based, human; conditions: 1.96 µg/mL, 24 h, vs medium control
# Description: as §1
# [12] = test system: Aβ in 3xTg AD mouse brain; experiment: Immunofluorescence staining of Aβ in brain of 3xTg AD mice; type: in vivo; conditions: 150 mg/kg/day in diet for four months
# Description: as §2, with “The AD transgenic mice were fed with the control diet (Laboratory Rodent Diet 5001, LabDiet, St. Louis, MO, USA), the control diet plus traditional curcumin (150 mg/kg), or the control diet plus TML-6 (150 mg/kg) for four months. Diets were stored at 4 °C and were added to mouse cage twice a week.” left out
# as §4
# [13] = test system: phospho-mTOR in Huh-7 cells; experiment: Western blotting of phospho-mTOR; type: cell-based, human
# Description: After cells were seeded and treated with curcumin and TML-6 for 24 h, cells were washed with ice-cold PBS (Phosphate Buffered Saline) and lysed with 100 μL of RIPA cell lysis buffer (Pierce Biotechnology, Rockford, IL, USA) supplemented with protease and phosphatase inhibitors (Roche Diagnostics, Mannheim, Germany). Cell lysates were further cleaned by centrifugation at 14,000 rpm at 4 °C for 15 min. Protein concentration was determined using a Bradford assay (Bio-Rad, Hercules, CA, USA). For Western blot analysis, 20 μg of each sample was prepared for SDS-PAGE (SDS Poly-acrylamide-gel-electrophoresis) and denatured at 95 ℃ for 10 min. The samples prepared from total lysates were loaded and separated by SDS-PAGE (8% or 10%), and then transferred to PVDF membranes (pore size 0.45 μm; PerkinElmer, Waltham, MA, USA) by semi-dry transfer cell (Bio-Rad). After blocking with 5% skim milk in PBS-T (0.1% Tween-20), the membranes were hybridized with primary antibodies at 1/1000 dilution at 4 °C overnight. On the next day, membranes were washed with PBS-T followed by incubation with HRP-conjugated anti-mouse or anti-rabbit secondary antibody (DAKO, Santa Clara, CA, USA) at 1/5000 dilution at room temperature for 1 h as appropriate. Finally, the images were captured by Amersham Imager 600 (GE Healthcare Life Sciences, Marlborough, MA, USA) after being developed using the chemiluminescent HRP substrate (Millipore, Bedford, MA, USA). The primary antibodies used in this study were anti-APP, anti-NF-κB (Cell Signaling Technology, Danvers, MA, USA), anti-Apo E, anti-p-mTOR (Abcam, Cambridge, MA, USA).
compound,measurement,setting,value
CCN(CC)C(=O)CC(C)(C(=O)/C=C/c1ccc(OC)c(OC)c1)C(=O)/C=C/c1ccc(OC)c(OC)c1 [TML-6],Cmax,[1],35.9 ± 15.6 ng/mL
same,MRT,[1],3.91 ± 0.62 h
same,Tmax,[1],3.67 ± 2.08 h
same,half-life,[1],76.2 ± 30.6 min
same,AUC(0-t),[1]; AUC(0-8),181 ± 78.7 ng·h/mL
same,AUC(0-t),[1]; AUC(0-last),177 ± 76.8 ng·h/mL
same,induction of ApoE protein expression level,Apo E in Huh-7 cells,approximately 44%
same,learning behavior in Morris water maze (in words),3xTg AD transgenic mice,significantly improved hippocampus-dependent learning behavior
same,cytotoxicity (CCK-8),Huh-7 cells,no cytotoxicity
same,IC50 at 24 h,[2],4.19 µg/mL and 8 µM
same,suppression of Iba-1 expression in hippocampus vs vehicle control,[3],50%
same,"highest dose, at which cytotoxicity was seen (micrographs)",N2a/APPswe stable cells,4.19 µg/mL
same,decrease of phosphorylated NF-κB level,[4],about 50%
same,detection in brain,[5],could not be detected
same,toxicity in the rat model (in words),rat,no obvious toxicity
same,concentration of highest Nrf2 transcriptional activation,"[6]; Huh-7, 24 h, luciferase reporter",1.32 µg/mL
same,concentration beyond which cytotoxicity was found in Nrf2 promoter-transfected cells,[6]; Huh-7 transiently transfected with Nrf2 promoter,> 5.24 µg/mL
same,"Nrf2 promoter activity, fold stronger than traditional curcumin at 10 µg/mL","[6]; TML-6 at 1.32 µg/mL vs curcumin 10 µg/mL, Huh-7, 24 h",12.1 fold
same,"Nrf2 promoter activity, fold stronger than traditional curcumin at 20 µg/mL","[6]; TML-6 at 1.32 µg/mL vs curcumin 20 µg/mL, Huh-7, 24 h",6.6 fold
same,solubility,[7],< 100 µg/mL
same,"Aβ40 level, reduced to % as compared with control group",[8],approximately 86%
same,Kp,"[9]; brain relative to plasma, AD transgenic mouse, read-out: brain level as % of the plasma pK levels",0.1
same,level detected in brain,"[9]; AD transgenic mouse brain, preliminary",3 ng/mL
same,"Aβ42 level, reduced to % as compared with control group",[10],~80%
same,reduction of APP protein expression level,[11],60%
same,reduction of Aβ expression in brain vs vehicle control,[12],51%
same,"phospho-mTOR suppression (Western blot, in words)","[13]; Huh-7, 24 h",suppressed in all the concentrations
same,potency of phospho-mTOR reduction relative to curcumin,[13]; TML-6 5.24 µg/mL gives same level as curcumin 20 µg/mL,about 4 fold
same,average reduction of phospho-mTOR,"[13]; dose below IC50 (0.65~3.93 µg/mL), 24 h",about 30%

# Reference: PMC7432838, “A Curcumin Analog Exhibits Multiple Biologic Effects on the Pathogenesis of Alzheimer’s Disease and Improves Behavior, Inflammation, and β-Amyloid Accumulation in a Mouse Model” (International Journal of Molecular Sciences, 2020)
